Source: patent US20100004234A1, “SPECIFIC KINASE INHIBITORS” (Kosan Biosciences Incorporated, priority 2004, published 2010)

Key:
Assay in all cases: Kinase panel, residual activity
Assay type in all cases: biochemical
Conditions in all cases: read-out: Percent residual activity
Fes(h) = Fes(h) (Homo sapiens, UniProt P07332)
Experimental: (§1) In this panel of 124 kinases, 18 of the 19 kinases identified as having an active site cysteine were inhibited to some extent by hypothemycin at a concentration of 0.2 μM and/or 2 μM.

PKCη(h) = PKCη(h) (Homo sapiens, UniProt P24723)
Experimental: as §1

SAPK3(h) = SAPK3(h) (Homo sapiens, UniProt P53778)
Experimental: as §1

ROCK-I(h) = ROCK-I(h) (Homo sapiens, UniProt Q13464)
Experimental: as §1

PKBβ(h) = PKBβ(h) (Homo sapiens, UniProt P31751)
Experimental: as §1

PKCα(h) = PKCα(h) (Homo sapiens, UniProt P17252)
Experimental: as §1

CSK(h) = CSK(h) (Homo sapiens, UniProt P41240)
Experimental: as §1

cKit(h) = cKit(h) (Homo sapiens, UniProt P10721)
Experimental: as §1

ASK1(h) = ASK1(h) (Homo sapiens, UniProt Q99683)
Experimental: as §1

Flt3(h) = Flt3(h) (Homo sapiens, UniProt P36888)
Sequence of Flt3(h) (P36888 27-993): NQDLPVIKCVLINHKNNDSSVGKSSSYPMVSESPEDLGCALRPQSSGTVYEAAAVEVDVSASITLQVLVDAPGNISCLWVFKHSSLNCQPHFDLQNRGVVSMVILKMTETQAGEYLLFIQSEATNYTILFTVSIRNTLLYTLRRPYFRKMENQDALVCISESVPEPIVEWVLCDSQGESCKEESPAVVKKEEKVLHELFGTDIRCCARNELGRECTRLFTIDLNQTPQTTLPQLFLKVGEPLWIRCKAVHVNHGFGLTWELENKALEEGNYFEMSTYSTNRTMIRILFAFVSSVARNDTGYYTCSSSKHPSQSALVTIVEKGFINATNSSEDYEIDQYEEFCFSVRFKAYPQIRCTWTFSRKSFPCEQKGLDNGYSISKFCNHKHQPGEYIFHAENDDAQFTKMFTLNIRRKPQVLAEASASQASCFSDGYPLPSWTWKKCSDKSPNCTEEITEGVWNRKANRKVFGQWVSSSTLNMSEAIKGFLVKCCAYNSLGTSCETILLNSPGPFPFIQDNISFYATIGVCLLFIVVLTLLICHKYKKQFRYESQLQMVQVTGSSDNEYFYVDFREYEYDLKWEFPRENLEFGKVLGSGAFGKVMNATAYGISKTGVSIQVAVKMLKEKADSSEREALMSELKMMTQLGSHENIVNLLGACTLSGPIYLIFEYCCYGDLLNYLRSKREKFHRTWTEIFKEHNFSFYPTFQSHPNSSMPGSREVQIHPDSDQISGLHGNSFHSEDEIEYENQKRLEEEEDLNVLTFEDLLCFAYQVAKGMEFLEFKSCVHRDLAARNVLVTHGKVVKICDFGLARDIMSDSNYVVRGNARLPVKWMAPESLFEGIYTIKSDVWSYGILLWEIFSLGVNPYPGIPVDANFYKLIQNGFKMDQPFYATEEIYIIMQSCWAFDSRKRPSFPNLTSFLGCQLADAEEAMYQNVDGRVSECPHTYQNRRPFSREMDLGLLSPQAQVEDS
Experimental: as §1

ALK(h) = ALK(h) (Homo sapiens, UniProt Q9UM73)
Experimental: as §1

SAPK2a(h) = SAPK2a(h) (Homo sapiens, UniProt Q16539)
Sequence of SAPK2a(h) (Q16539 whole entry): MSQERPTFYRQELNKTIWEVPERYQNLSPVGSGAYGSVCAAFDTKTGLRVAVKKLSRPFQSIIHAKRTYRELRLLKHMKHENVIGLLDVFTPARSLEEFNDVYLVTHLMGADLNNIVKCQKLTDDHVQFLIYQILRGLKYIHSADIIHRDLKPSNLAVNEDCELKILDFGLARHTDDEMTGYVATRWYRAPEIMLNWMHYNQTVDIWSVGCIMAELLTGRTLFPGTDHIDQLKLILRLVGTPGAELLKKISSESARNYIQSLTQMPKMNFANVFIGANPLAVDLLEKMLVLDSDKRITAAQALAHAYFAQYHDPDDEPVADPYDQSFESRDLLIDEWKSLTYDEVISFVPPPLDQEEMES
Experimental: as §1

Met(h) = Met(h) (Homo sapiens, UniProt P08581)
Experimental: as §1

DDR2(h) = DDR2(h) (Homo sapiens, UniProt Q16832)
Experimental: as §1

CHK1(h) = CHK1(h) (Homo sapiens, UniProt O14757)
Experimental: as §1

Abl(T315I)(h) = Abl(T315I)(h) (Homo sapiens, UniProt P00519, T315I)
Experimental: as §1

GSK3α(h) = GSK3α(h) (Homo sapiens, UniProt P49840)
Sequence of GSK3α(h) (P49840 whole entry): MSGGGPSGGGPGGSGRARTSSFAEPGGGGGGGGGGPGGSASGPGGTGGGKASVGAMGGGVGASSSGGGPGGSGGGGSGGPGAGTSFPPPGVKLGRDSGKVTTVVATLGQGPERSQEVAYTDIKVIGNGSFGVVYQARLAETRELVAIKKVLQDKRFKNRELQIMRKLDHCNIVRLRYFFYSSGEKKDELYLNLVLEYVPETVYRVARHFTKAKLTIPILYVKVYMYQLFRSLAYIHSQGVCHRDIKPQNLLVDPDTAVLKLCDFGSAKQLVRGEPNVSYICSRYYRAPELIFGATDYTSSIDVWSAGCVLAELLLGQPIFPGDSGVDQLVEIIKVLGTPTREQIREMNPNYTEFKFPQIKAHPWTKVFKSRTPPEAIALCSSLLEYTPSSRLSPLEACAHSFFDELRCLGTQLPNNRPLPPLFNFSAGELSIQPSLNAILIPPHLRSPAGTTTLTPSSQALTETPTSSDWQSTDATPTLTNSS
Experimental: as §1

PKCβI(h) = PKCβI(h) (Homo sapiens, UniProt P05771)
Experimental: as §1

CaMKIV(h) = CaMKIV(h) (Homo sapiens, UniProt Q16566)
Experimental: as §1

TrkB(h) = TrkB(h) (Homo sapiens, UniProt Q16620)
Sequence of TrkB(h) (Q16620 32-822): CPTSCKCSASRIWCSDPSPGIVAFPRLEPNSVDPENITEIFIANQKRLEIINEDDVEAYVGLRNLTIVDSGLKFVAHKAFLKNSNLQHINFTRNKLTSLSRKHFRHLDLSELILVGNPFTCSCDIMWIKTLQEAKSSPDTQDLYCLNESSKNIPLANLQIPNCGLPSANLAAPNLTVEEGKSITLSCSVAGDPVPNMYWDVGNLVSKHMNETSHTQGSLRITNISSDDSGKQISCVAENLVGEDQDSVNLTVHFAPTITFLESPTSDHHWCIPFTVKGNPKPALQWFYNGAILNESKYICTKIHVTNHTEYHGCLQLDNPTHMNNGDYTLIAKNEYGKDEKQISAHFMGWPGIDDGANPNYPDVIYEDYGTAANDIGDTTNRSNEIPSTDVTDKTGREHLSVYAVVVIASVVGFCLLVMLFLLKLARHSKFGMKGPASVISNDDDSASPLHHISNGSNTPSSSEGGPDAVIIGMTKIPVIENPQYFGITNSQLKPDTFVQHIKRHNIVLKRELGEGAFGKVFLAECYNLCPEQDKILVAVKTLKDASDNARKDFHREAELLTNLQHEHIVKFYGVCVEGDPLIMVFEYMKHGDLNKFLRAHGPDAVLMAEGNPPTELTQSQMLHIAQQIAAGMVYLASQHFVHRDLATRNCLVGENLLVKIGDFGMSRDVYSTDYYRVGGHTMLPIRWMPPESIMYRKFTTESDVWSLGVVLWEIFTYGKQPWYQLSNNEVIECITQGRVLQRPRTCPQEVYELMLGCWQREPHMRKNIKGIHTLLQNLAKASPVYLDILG
Experimental: as §1

MKK6(h) = MKK6(h) (Homo sapiens, UniProt P52564)
Sequence of MKK6(h) (P52564 whole entry): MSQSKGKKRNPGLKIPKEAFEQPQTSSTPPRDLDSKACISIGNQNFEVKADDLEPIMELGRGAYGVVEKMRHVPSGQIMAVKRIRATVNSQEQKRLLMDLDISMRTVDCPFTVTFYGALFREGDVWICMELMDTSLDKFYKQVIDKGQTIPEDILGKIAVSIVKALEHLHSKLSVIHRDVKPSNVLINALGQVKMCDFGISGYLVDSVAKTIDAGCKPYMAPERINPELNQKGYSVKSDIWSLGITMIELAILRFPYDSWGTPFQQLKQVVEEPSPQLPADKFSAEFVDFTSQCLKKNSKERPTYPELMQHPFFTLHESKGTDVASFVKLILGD
Experimental: as §1

CDK5/p35(h) = CDK5/p35(h) (Homo sapiens, UniProt Q00535)
Experimental: as §1

JNK2α2(h) = JNK2α2(h) (Homo sapiens, UniProt P45984)
Experimental: as §1

Rsk3(h) = Rsk3(h) (Homo sapiens, UniProt Q15349)
Experimental: as §1

PAR-1Bα(h) = PAR-1Bα(h) (Homo sapiens, UniProt Q7KZI7)
Experimental: as §1

MAPKAP-K3(h) = MAPKAP-K3(h) (Homo sapiens, UniProt Q16644)
Experimental: as §1

CDK2/cyclinE(h) = CDK2/cyclinE(h) (Homo sapiens, UniProt P24941)
Experimental: as §1

TrkA(h) = TrkA(h) (Homo sapiens, UniProt P04629)
Sequence of TrkA(h) (P04629 33-796): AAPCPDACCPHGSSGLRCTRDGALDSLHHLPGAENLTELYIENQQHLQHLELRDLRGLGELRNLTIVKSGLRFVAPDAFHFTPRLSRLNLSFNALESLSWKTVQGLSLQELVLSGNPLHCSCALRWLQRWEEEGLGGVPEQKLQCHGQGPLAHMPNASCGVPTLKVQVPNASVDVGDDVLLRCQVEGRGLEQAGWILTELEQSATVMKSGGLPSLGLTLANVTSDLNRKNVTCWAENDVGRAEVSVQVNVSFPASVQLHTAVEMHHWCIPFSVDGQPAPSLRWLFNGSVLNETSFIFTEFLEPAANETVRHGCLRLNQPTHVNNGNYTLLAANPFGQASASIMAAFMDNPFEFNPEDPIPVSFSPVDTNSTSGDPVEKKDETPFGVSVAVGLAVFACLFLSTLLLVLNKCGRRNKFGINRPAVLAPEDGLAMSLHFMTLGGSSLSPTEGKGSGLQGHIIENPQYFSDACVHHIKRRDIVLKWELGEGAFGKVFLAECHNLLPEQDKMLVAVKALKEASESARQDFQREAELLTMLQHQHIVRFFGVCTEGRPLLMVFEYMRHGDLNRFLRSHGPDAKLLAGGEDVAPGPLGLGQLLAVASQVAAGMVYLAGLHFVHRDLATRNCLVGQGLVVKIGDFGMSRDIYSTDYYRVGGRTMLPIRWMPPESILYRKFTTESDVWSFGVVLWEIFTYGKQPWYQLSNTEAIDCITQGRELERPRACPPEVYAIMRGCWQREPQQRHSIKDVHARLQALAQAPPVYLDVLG
Experimental: as §1

Bmx(h) = Bmx(h) (Homo sapiens, UniProt P51813)
Experimental: as §1

EphB2(h) = EphB2(h) (Homo sapiens, UniProt P29323)
Experimental: as §1

MINK(h) = MINK(h) (Homo sapiens, UniProt Q8N4C8)
Experimental: as §1

NEK2(h) = NEK2(h) (Homo sapiens, UniProt P51955)
Experimental: as §1

PKCμ(h) = PKCμ(h) (Homo sapiens, UniProt Q15139)
Sequence of PKCμ(h) (Q15139 whole entry): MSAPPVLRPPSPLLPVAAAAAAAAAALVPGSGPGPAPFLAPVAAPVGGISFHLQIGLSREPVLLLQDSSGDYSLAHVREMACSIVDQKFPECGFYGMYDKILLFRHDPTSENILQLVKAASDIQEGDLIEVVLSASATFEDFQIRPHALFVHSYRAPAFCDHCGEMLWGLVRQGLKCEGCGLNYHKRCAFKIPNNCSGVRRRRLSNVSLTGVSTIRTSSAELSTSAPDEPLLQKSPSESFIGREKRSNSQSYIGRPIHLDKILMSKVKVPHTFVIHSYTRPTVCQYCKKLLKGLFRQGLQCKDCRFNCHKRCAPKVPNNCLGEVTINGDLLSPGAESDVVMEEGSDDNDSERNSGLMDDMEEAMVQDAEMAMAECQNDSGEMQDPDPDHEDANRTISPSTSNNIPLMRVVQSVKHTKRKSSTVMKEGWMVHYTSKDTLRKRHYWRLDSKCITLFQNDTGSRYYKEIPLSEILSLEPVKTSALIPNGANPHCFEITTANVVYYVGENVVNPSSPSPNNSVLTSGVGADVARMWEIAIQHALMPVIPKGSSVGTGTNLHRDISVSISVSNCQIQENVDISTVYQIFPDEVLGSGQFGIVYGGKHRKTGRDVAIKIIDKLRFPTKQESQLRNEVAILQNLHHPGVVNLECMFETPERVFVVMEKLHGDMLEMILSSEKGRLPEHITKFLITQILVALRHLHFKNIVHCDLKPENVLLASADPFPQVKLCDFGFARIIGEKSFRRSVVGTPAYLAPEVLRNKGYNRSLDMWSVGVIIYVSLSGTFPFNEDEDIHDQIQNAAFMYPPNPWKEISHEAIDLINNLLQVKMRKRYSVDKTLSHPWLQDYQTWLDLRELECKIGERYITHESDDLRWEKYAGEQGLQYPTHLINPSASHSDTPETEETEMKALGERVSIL
Experimental: as §1

Pim-1(h) = Pim-1(h) (Homo sapiens, UniProt P11309)
Experimental: as §1

TAK1(h) = TAK1(h) (Homo sapiens, UniProt O43318)
Sequence of TAK1(h) (O43318 1-303 limits assumed): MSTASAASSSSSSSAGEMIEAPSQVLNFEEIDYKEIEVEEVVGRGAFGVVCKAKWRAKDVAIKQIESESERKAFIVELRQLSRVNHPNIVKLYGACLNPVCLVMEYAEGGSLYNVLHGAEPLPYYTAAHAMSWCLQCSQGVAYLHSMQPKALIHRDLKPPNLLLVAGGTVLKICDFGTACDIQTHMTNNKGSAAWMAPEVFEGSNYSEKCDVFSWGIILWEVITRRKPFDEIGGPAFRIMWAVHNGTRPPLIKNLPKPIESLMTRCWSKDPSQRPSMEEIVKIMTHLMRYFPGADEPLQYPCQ
Sequence of TAK1(h) (Q15750 437-504 partner limits assumed): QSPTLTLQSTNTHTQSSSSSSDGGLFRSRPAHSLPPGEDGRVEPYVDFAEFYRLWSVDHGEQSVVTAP
Experimental: as §1

ErbB4(h) = ErbB4(h) (Homo sapiens, UniProt Q15303)
Experimental: as §1

PAK4(h) = PAK4(h) (Homo sapiens, UniProt O96013)
Experimental: as §1

`COc1cc(O)c2c(c1)[C@H]1O[C@@H]1C[C@H](O)[C@H](O)C(=O)/C=C\C[C@H](C)OC2=O` [Hypothemycin, hypothemycin] showed a remaining activity at 0.2 µM (Fes(h)) of 92%, a remaining activity at 0.2 µM (PKCη(h)) of 97% and a remaining activity at 0.2 µM (SAPK3(h)) of 104%. It also gave a remaining activity at 0.2 µM (ROCK-I(h)) of 121%, a remaining activity at 0.2 µM (PKBβ(h)) of 91% and a remaining activity at 0.2 µM (PKCα(h)) of 96%. The remaining activity at 0.2 µM (CSK(h)) was 104%, the remaining activity at 0.2 µM (cKit(h); 0.2 μM) was 93% and the remaining activity at 2 µM (cKit(h); 2.0 μM) was 21%. It also gave a remaining activity at 0.2 µM (ASK1(h)) of 100%, a remaining activity at 0.2 µM (Flt3(h); 0.2 μM) of 6% and a remaining activity at 2 µM (Flt3(h); 2.0 μM) of 3%. For the same compound, the remaining activity at 0.2 µM (ALK(h)) was 101%, the remaining activity at 0.2 µM (SAPK2a(h)) was 107% and the remaining activity at 0.2 µM (Met(h)) was 96%. It also gave a remaining activity at 0.2 µM (DDR2(h)) of 92%, a remaining activity at 0.2 µM (CHK1(h)) of 94% and a remaining activity at 0.2 µM (Abl(T315I)(h)) of 90%. For the same compound, the remaining activity at 0.2 µM (GSK3α(h); 0.2 μM) was 90%, the remaining activity at 2 µM (GSK3α(h); 2.0 μM) was 88% and the remaining activity at 0.2 µM (PKCβI(h)) was 99%. The remaining activity at 0.2 µM (CaMKIV(h)) was 102%, the remaining activity at 0.2 µM (TrkB(h); 0.2 μM) was 58% and the remaining activity at 2 µM (TrkB(h); 2.0 μM) was 18%. It also gave a remaining activity at 0.2 µM (MKK6(h); 0.2 μM) of 43%, a remaining activity at 2 µM (MKK6(h); 2.0 μM) of 8% and a remaining activity at 0.2 µM (CDK5/p35(h)) of 103%. For the same compound, the remaining activity at 0.2 µM (JNK2α2(h)) was 93%, the remaining activity at 0.2 µM (Rsk3(h)) was 94% and the remaining activity at 0.2 µM (PAR-1Bα(h)) was 93%. The remaining activity at 0.2 µM (MAPKAP-K3(h)) was 98%, the remaining activity at 0.2 µM (CDK2/cyclinE(h)) was 105% and the remaining activity at 0.2 µM (TrkA(h); 0.2 μM) was 22%. The remaining activity at 2 µM (TrkA(h); 2.0 μM) was 1%, the remaining activity at 0.2 µM (Bmx(h)) was 99% and the remaining activity at 0.2 µM (EphB2(h)) was 118%. The remaining activity at 0.2 µM (MINK(h)) was 88%, the remaining activity at 0.2 µM (NEK2(h)) was 99% and the remaining activity at 0.2 µM (PKCμ(h); 0.2 μM) was 34%. It also gave a remaining activity at 2 µM (PKCμ(h); 2.0 μM) of 6%, a remaining activity at 0.2 µM (Pim-1(h)) of 100% and a remaining activity at 0.2 µM (TAK1(h); 0.2 μM) of 12%. For the same compound, the remaining activity at 2 µM (TAK1(h); 2.0 μM) was 5%, the remaining activity at 0.2 µM (ErbB4(h)) was 124% and the remaining activity at 0.2 µM (PAK4(h)) was 92%.
